Data set [1] concerns the target T1, GFP-tagged full-length STEAP4 (Homo sapiens, UniProt Q687X5).
T1 construct: full-length, C-terminal GFP-Strep3 tag kept; detergent-purified (digitonin), trimer
T1 sequence (Q687X5 1-459): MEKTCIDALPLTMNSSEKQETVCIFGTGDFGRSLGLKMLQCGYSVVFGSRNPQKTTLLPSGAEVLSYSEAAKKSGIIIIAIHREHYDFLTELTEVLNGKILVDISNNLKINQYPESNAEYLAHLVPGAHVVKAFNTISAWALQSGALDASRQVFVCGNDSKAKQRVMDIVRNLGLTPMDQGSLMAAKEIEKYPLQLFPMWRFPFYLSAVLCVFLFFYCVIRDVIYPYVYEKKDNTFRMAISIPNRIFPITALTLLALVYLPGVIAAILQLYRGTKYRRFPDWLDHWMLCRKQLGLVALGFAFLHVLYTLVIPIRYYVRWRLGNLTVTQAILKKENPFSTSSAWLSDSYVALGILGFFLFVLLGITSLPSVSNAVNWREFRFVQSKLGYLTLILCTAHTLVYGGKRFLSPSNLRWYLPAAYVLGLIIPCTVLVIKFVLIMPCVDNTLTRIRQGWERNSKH
As to the kind of experiment: ferrozine ferric-reductase assay, FAD varied. The note with it: 200 µM Fe3+-NTA, 75 µM NADPH, 37 °C, SEC buffer pH 5.5, digitonin. The data set is classed as biochemical.

Data set [2] deals with T2, STEAP4EM (Homo sapiens, UniProt Q687X5).
T2 construct: gene STEAP4; residues K18-Q456 (deltaN17 deltaC3), C-terminal GFP-Strep3 tag removed by TEV; codon-optimised, HEK293 GNTI- cells; digitonin-solubilised homotrimer; cytosolic oxidoreductase domain plus transmembrane domain
T2 sequence (Q687X5 18-456): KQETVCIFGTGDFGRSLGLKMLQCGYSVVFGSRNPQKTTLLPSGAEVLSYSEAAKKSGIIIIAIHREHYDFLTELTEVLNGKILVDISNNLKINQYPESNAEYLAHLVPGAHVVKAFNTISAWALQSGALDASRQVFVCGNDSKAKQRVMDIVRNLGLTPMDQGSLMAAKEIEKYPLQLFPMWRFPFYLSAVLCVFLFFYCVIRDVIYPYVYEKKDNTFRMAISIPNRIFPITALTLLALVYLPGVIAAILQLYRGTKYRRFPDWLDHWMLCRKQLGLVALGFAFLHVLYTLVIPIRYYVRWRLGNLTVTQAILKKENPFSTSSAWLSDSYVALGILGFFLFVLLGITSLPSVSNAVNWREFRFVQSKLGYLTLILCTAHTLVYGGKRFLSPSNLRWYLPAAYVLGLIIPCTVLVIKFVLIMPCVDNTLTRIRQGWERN
As to the kind of experiment: ferrozine ferric-reductase assay, FAD varied, binding curve fit. It counts as biochemical. The note with it: 200 µM Fe3+-NTA, 75 µM NADPH, 37 °C, SEC buffer pH 5.5, digitonin; Kd from activity curve; also seen in cryo-EM structures.

Data set [3] deals with T2, STEAP4EM. The experiment in a line: ferric-reductase assay with FMN instead of FAD. The data set is classed as biochemical. The note with it: FMN in place of FAD; construct (STEAP4EM or full length) not stated in main text.
Data set [4] deals with T3, GFP-tagged full-length STEAP4 (Homo sapiens, UniProt Q687X5, S138Q).
T3 construct: full-length, C-terminal GFP-Strep3 tag kept; detergent-purified (digitonin), trimer
T3 sequence (Q687X5 1-459 S138Q): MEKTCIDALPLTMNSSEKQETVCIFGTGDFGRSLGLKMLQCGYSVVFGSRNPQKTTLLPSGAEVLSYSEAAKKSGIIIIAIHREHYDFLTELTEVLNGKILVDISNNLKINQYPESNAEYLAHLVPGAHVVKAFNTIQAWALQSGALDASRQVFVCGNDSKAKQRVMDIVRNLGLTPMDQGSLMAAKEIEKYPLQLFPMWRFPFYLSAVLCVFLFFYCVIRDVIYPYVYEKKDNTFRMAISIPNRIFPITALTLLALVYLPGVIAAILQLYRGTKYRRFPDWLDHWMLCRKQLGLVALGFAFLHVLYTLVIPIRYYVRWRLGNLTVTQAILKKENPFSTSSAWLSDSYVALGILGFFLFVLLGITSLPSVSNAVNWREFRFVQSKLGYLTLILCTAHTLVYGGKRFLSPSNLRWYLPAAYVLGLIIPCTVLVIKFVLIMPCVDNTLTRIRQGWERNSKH
As to the kind of experiment: ferrozine ferric-reductase assay, NADPH varied. The data set is classed as biochemical. The following applies: 200 µM Fe3+-NTA, 10 µM FAD, 37 °C, SEC buffer pH 5.5, digitonin.

The target of data set [5] is T1, GFP-tagged full-length STEAP4. As to the kind of experiment: ferrozine ferric-reductase assay, NADPH varied. The data set is classed as biochemical. The following applies: 200 µM Fe3+-NTA, 10 µM FAD, 37 °C, SEC buffer pH 5.5, digitonin.
The target of data set [6] is STEAP4EM (human STEAP4 residues K18-Q456, ΔN17ΔC3), non-TEV cleaved, with C-terminal GFP-Strep3 tag (human). As to the kind of experiment: SEC-MALS; non-TEV cleaved STEAP4EM on Superdex200 10/300 increase in 20 mM Tris pH 8.0, 150 mM NaCl, 0.08% digitonin, 0.75 ml/min; protein conjugate analysis to separate protein and micelle. (SEC sorts molecules by how far they enter the pores of the column.)

Data set [7] deals with the molecule itself. As to the kind of experiment: not stated; purified S138Q mutant; data in Supplementary Fig. 13.
Substrate in data set [8]: NC(=O)C1=CN([C@@H]2O[C@H](COP(=O)(O)OP(=O)(O)OC[C@H]3O[C@@H](n4cnc5c(N)ncnc54)[C@H](OP(=O)(O)O)[C@@H]3O)[C@@H](O)[C@H]2O)C=CC1
As to the kind of experiment: ferrozine ferric-reductase assay, NADPH varied. The following applies: 200 µM Fe3+-NTA, 10 µM FAD, 37 °C, SEC buffer pH 5.5, digitonin, also seen in cryo-EM structure. It counts as biochemical, Homo sapiens.

A word on the Kd: it is the free concentration of one partner at which half of the binding sites on the other are occupied at equilibrium, for simple one-to-one binding. High values mean weaker binding, low ones tighter binding. Turning to `Cc1cc2nc3c(=O)[nH]c(=O)nc-3n(C[C@H](O)[C@H](O)[C@H](O)COP(=O)(O)OP(=O)(O)OC[C@H]3O[C@@H](n4cnc5c(N)ncnc54)[C@H](O)[C@@H]3O)c2cc1C` [FAD], the “ferrozine ferric-reductase assay, FAD varied” value in data set [1] was “full-length STEAP4 wildtype (WT) and S138Q mutant with varying FAD concentrations”. This molecule also had a dissociation constant Kd at STEAP4EM [2] of 1.2 µM.
Turning to `Cc1cc2nc3c(=O)[nH]c(=O)nc-3n(C[C@H](O)[C@H](O)[C@H](O)COP(=O)(O)O)c2cc1C` [FMN], at STEAP4EM [3], the “ferric-reductase assay with FMN instead of FAD” value is “FMN may act as a cofactor in STEAP4-catalyzed iron reduction”.
For `NC(=O)C1=CN([C@@H]2O[C@H](COP(=O)(O)OP(=O)(O)OC[C@H]3O[C@@H](n4cnc5c(N)ncnc54)[C@H](OP(=O)(O)O)[C@@H]3O)[C@@H](O)[C@H]2O)C=CC1` [NADPH], the “ferrozine ferric-reductase assay, NADPH varied” value in data set [4] was “displayed strongly impaired ferric-reductase activity”; in data set [5], “full-length STEAP4 WT and S138Q mutant with varying NADPH concentrations”.
As a reminder, the stoichiometry N is the number of molecules, sites or subunits per partner or assembly. Turning to “STEAP4EM (human STEAP4 residues K18-Q456, ΔN17ΔC3), non-TEV cleaved, with C-terminal GFP-Strep3 tag (enzyme)”, the stoichiometry N in data set [6] was 3.

B1: full-length human STEAP4 S138Q mutant (enzyme, UniProt Q687X5 1-459, looked up)
chain: MEKTCIDALPLTMNSSEKQETVCIFGTGDFGRSLGLKMLQCGYSVVFGSRNPQKTTLLPSGAEVLSYSEAAKKSGIIIIAIHREHYDFLTELTEVLNGKILVDISNNLKINQYPESNAEYLAHLVPGAHVVKAFNTIQAWALQSGALDASRQVFVCGNDSKAKQRVMDIVRNLGLTPMDQGSLMAAKEIEKYPLQLFPMWRFPFYLSAVLCVFLFFYCVIRDVIYPYVYEKKDNTFRMAISIPNRIFPITALTLLALVYLPGVIAAILQLYRGTKYRRFPDWLDHWMLCRKQLGLVALGFAFLHVLYTLVIPIRYYVRWRLGNLTVTQAILKKENPFSTSSAWLSDSYVALGILGFFLFVLLGITSLPSVSNAVNWREFRFVQSKLGYLTLILCTAHTLVYGGKRFLSPSNLRWYLPAAYVLGLIIPCTVLVIKFVLIMPCVDNTLTRIRQGWERNSKH
notes: six-transmembrane epithelial antigen of the prostate 4 (STEAP4), human, full length, with S138Q; source: detergent-purified
Consider B1, for which the “stoichiometry N” value in data set [7] turned out to be 3.

B2: STEAP4EM (Homo sapiens) (protein)
chain: KQETVCIFGTGDFGRSLGLKMLQCGYSVVFGSRNPQKTTLLPSGAEVLSYSEAAKKSGIIIIAIHREHYDFLTELTEVLNGKILVDISNNLKINQYPESNAEYLAHLVPGAHVVKAFNTISAWALQSGALDASRQVFVCGNDSKAKQRVMDIVRNLGLTPMDQGSLMAAKEIEKYPLQLFPMWRFPFYLSAVLCVFLFFYCVIRDVIYPYVYEKKDNTFRMAISIPNRIFPITALTLLALVYLPGVIAAILQLYRGTKYRRFPDWLDHWMLCRKQLGLVALGFAFLHVLYTLVIPIRYYVRWRLGNLTVTQAILKKENPFSTSSAWLSDSYVALGILGFFLFVLLGITSLPSVSNAVNWREFRFVQSKLGYLTLILCTAHTLVYGGKRFLSPSNLRWYLPAAYVLGLIIPCTVLVIKFVLIMPCVDNTLTRIRQGWERN
notes: residues K18-Q456 (deltaN17 deltaC3), C-terminal GFP-Strep3 tag removed by TEV; codon-optimised, HEK293 GNTI- cells; digitonin-solubilised homotrimer; cytosolic oxidoreductase domain plus transmembrane domain
Usually Km stands for the substrate concentration at which the rate is half of its maximum. For B2, the Km in data set [8] stood at 4.2 µM.

The record behind these values is paper PMC6194020, “Cryo-EM structures of human STEAP4 reveal mechanism of iron(III) reduction” (Nature Communications, 2018).
